“Also recorded” adds a separate entry of the source. Where two headings read alike, the source gives them in different places.
Experiments:
[1] = tested on: HIV-1 patient-derived protease and reverse transcriptase segments (N88S in PR) in resistance test vectors; experiment: Phenotypic drug susceptibility test with resistance test vectors from patient samples; type: cell-based; conditions: for Fold Change vs. reference: N88S
[2] = tested on: HIV-1 patient viruses with protease L90M; experiment: Phenotypic susceptibility profiles of 58 patient virus samples with L90M, no other primary mutations; type: cell-based; conditions: {}
[3] = tested on: HIV-1 patient viruses with protease L90M; experiment: Phenotypic susceptibility profiles of 333 patient virus samples with L90M (not 30 or 50); type: cell-based
HIV-1 = conditions: cited from earlier work
HIV-2 = conditions: cited from earlier work
[4] = tested on: HIV-1 variants with protease substitutions; conditions: cited from earlier work
[5] = target: HIV-1 protease mutants (I50V, M46I/I47V/I50V, L10F, M46I, I47V) (Human immunodeficiency virus type 1 group M subtype B, UniProt P04585, I535V/I538V/M534I); conditions: triple mutant M46I/I47V/I50V; cited from earlier work
[6] = target: HIV-1 protease mutants (I50V, M46I/I47V/I50V, L10F, M46I, I47V) (Human immunodeficiency virus type 1 group M subtype B, UniProt P04585, I538V); conditions: I50V single-mutant protease; cited from earlier work
[7] = tested on: HIV-1 protease mutants (I50V, M46I/I47V/I50V, L10F, M46I, I47V); conditions: single mutants L10F, M46I, and I47V; cited from earlier work
[8] = tested on: HIV-1 protease site-directed mutants (N88S, L63P, V77I, M46L) in resistance test vector; experiment: Phenotypic susceptibility assay of resistance test vectors with site-directed mutations in PR
Description: The resistance test vectors containing a functional luciferase gene cassette were constructed and host cells were transfected with the resistance test vector DNA. […] The resistance test vector viral particles produced by transfecting the resistance test vector DNA into host cells, either in the presence or absence of protease inhibitors, were used to infect target host cells grown either in the absence of NRTI or NNRTI or in the presence of increasing concentrations of the drug. Luciferase activity in infected target host cells in the presence of drug was compared to the luciferase activity in infected target host cells in the absence of drug. […] The IC50 values were determined by plotting percent drug inhibition vs. log10 drug concentration.
Host cells were seeded in 10-cm-diameter dishes and were transfected one day after plating with resistance test vector plasmid DNA and the envelope expression vector. Transfections were performed using a calcium-phosphate co-precipitation procedure. The cell culture media containing the DNA precipitate was replaced with fresh medium, from one to 24 hours, after transfection. Cell culture media containing resistance test vector viral particles was harvested one to four days after transfection and was passed through a 0.45-mm filter before being stored at −80° C. HIV capsid protein (p24) levels in the harvested cell culture media were determined by an EIA method as described by the manufacturer (SIAC; Frederick, Md.). Before infection, target cells (293 and 293/T) were plated in cell culture media. Control infections were performed using cell culture media from mock transfections (no DNA) or transfections containing the resistance test vector plasmid DNA without the envelope expression plasmid. One to three or more days after infection the media was removed and cell lysis buffer (Promega) was added to each well. Cell lysates were assayed for luciferase activity. The inhibitory effect of the drug was determined using the following equation: % luciferase inhibition=[1−(RLUluc[drug]RLUluc)]×100 where RLUluc [drug] is the relative light unit of luciferase activity in infected cells in the presence of drug and RLUluc is the Relative Light Unit of luciferase activity in infected cells in the absence of drug. IC50 values were obtained from the sigmoidal curves that were generated from the data by plotting the percent inhibition of luciferase activity vs. the log10 drug concentration.
Mutations are introduced into the resistance test vector through any of the widely known methods for site-directed mutagenesis. […] A resistance test vector containing the specific mutation or group of mutations are then tested using the phenotypic susceptibility assay described above and the susceptibility profile is compared to that of a genetically defined wild-type (drug susceptible) resistance test vector which lacks the specific mutations.
Resistance test vectors were constructed containing the N88S mutation alone and in combination with other substitutions in PR (L63P, V77I and M46L) known to modulate the HIV susceptibility to PRIs. Mutations were introduced into the resistance test vector using the mega-primer PCR method for site-directed mutagenesis.

## CC(C)CN(C[C@@H](O)[C@H](Cc1ccccc1)NC(=O)O[C@H]1CCOC1)S(=O)(=O)c1ccc(N)cc1 [amprenavir]
[1]; patient sample 360, prior PRI IDV, PR I13V, K20M, M36V, N37A, M46I, I62V, L63P, I93L
  Fold Change vs. reference: 0.15 fold
[1]; patient sample 627, prior PRI IDV, PR I13I/V, E35D, M46L, L63P, I64V, I73V
  Fold Change vs. reference: 0.09 fold
[1]; patient sample 0732, prior PRI NFV, PR K14R, I15V, K20T, E35D, M36I, R41K, I62V, L63Q
  Fold Change vs. reference: 0.08 fold
[1]; patient sample 0910, prior PRI NFV, PR M46I, L63P, V77I, I93I/L
  Fold Change vs. reference: 0.16 fold
[1]; patient sample 1208, prior PRI NFV, PR I62V, L63P, V77I
  Fold Change vs. reference: 0.10 fold
[1]; patient sample 3542, prior PRI IDV, PR I13V, K14R, N37D, M46I, L63P, I93L
  Fold Change vs. reference: 0.16 fold
[1]; patient sample 3654, PR I13V, R41K, M46I, L63P, V77I, I93L
  Fold Change vs. reference: 0.20 fold
[1]; patient sample RTV-360
  change in susceptibility: increase
[1]; patient sample RTV-627
  change in susceptibility: increase
[1]; patient sample RTV-0732
  change in susceptibility: increase; also recorded: increased susceptibility
[1]; patient sample RTV-0910
  change in susceptibility: increase
[1]; patient sample RTV-1208
  change in susceptibility: increase
[1]; patient sample RTV-3542
  change in susceptibility: increase
[1]; patient sample RTV-3654
  change in susceptibility: increase
[2]
  Percent of viruses with indicated primary mutation(s) which are drug sensitive (fold change in IC50 < 2.5): 65.5%
[3]; Amprenavir FC>2.5, L90M, position 10 wild type
  wt % > 2.5: 30.8%
[3]; Amprenavir FC>2.5, L90M, position 15 wild type
  wt % > 2.5: 63.6%
[3]; Amprenavir FC>2.5, L90M, position 33 wild type
  wt % > 2.5: 57.4%
[3]; Amprenavir FC>2.5, L90M, position 36 wild type
  wt % > 2.5: 55.3%
[3]; Amprenavir FC>2.5, L90M, position 46 wild type
  wt % > 2.5: 46.2%
[3]; Amprenavir FC>2.5, L90M, position 53 wild type
  wt % > 2.5: 57.6%
[3]; Amprenavir FC>2.5, L90M, position 54 wild type
  wt % > 2.5: 47.5%
[3]; Amprenavir FC>2.5, L90M, position 58 wild type
  wt % > 2.5: 58.7%
[3]; Amprenavir FC>2.5, L90M, position 62 wild type
  wt % > 2.5: 55.3%
[3]; Amprenavir FC>2.5, L90M, position 74 wild type
  wt % > 2.5: 62.5%
[3]; Amprenavir FC>2.5, L90M, position 82 wild type
  wt % > 2.5: 53.5%
[3]; Amprenavir FC>2.5, L90M, position 84 wild type
  wt % > 2.5: 48.5%
[3]; Amprenavir FC>2.5, L90M, position 89 wild type
  wt % > 2.5: 59.3%
[3]; Amprenavir FC>2.5, L90M, position 92 wild type
  wt % > 2.5: 58.6%
[3]; Amprenavir FC>2.5, L90M, position 95 wild type
  wt % > 2.5: 58.7%
[3]; Amprenavir FC>2.5, listed as 90: all samples with L90M
  mt % > 2.5: 60.4%
[3]; Amprenavir FC>10, L90M, position 10 wild type
  wt % > 10: 2.6%
[3]; Amprenavir FC>10, L90M, position 13 wild type
  wt % > 10: 10.9%
[3]; Amprenavir FC>10, L90M, position 32 wild type
  wt % > 10: 11.7%
[3]; Amprenavir FC>10, L90M, position 33 wild type
  wt % > 10: 8.4%
[3]; Amprenavir FC>10, L90M, position 46 wild type
  wt % > 10: 8.3%
[3]; Amprenavir FC>10, L90M, position 47 wild type
  wt % > 10: 11.9%
[3]; Amprenavir FC>10, L90M, position 53 wild type
  wt % > 10: 11.5%
[3]; Amprenavir FC>10, L90M, position 54 wild type
  wt % > 10: 5.9%
[3]; Amprenavir FC>10, L90M, position 55 wild type
  wt % > 10: 11.6%
[3]; Amprenavir FC>10, L90M, position 66 wild type
  wt % > 10: 11.9%
[3]; Amprenavir FC>10, L90M, position 69 wild type
  wt % > 10: 14.2%
[3]; Amprenavir FC>10, L90M, position 84 wild type
  wt % > 10: 8.7%
[3]; Amprenavir FC>10, listed as 90: all samples with L90M
  % > 10: 12.9%
[3]; L90M
  Percent of viruses with indicated primary mutation(s) with reduced susceptibility (fold change in IC50 > 2.5): 60.4%
  Percent of viruses with indicated primary mutation(s) with reduced susceptibility (fold change in IC50 > 10): 12.9%
HIV-1; read-out: IC50
  IC50: 0.08 µM
HIV-1; read-out: mean IC50
  IC50: 0.012 µM
HIV-2
  IC50: 0.34 µM
[4]; I50V as a single mutation
  decrease in susceptibility: two- to threefold
[4]; in vitro passage, L10F, M46I, I47V, I50V
  resistance of selected variants: 100 fold
[4]; other substitutions as single mutations in HXB2
  change in susceptibility: did not result in reduced susceptibility
[4]; triple mutant clone M46I, I47V, I50V
  fold less susceptible than wild-type virus: 20 fold
[5]
  fold-reduced Kl compared to wild-type enzyme: 270 fold
[6]
  fold reduction in the inhibition constant (Kl) compared to wild-type enzyme: 80 fold
[7]
  affinity: did not display reduced affinity
[8]; L63P-N88S-RTV
  change in susceptibility compared to wild type control RTV: increase in the susceptibility
[8]; L63P-V77I-N88S-RTV
  change in susceptibility compared to wild type control RTV: increase in the susceptibility; also recorded: increased susceptibility
[8]; M46L-L63P-N88S-RTV
  change in susceptibility compared to wild type control RTV: increase in the susceptibility
[8]; M46L-L63P-V77I-N88S-RTV
  change in susceptibility compared to wild type control RTV: increase in the susceptibility
[8]; N88S-RTV
  change in susceptibility compared to wild type control RTV: more susceptible
[8]; site-directed mutation N88S
  Fold Change vs. reference: 0.04 fold
[8]; site-directed mutations L63P
  Fold Change vs. reference: 1.06 fold
[8]; site-directed mutations L63P, N88S
  Fold Change vs. reference: 0.11 fold
[8]; site-directed mutations L63P, V77I
  Fold Change vs. reference: 0.91 fold
[8]; site-directed mutations L63P, V77I, N88S
  Fold Change vs. reference: 0.08 fold
[8]; site-directed mutations M46L, L63P, N88S
  Fold Change vs. reference: 0.12 fold
[8]; site-directed mutations M46L, L63P, V77I, N88S
  Fold Change vs. reference: 0.14 fold

From US7138231B2 (priority 2000, dated 2006)
